Source: patent US11286268B1, “EIF4E-inhibiting compounds and methods” (EFFECTOR THERAPEUTICS, INC., priority 2019, dated 2022)
Like-named read-outs stand apart in the source and are kept apart here.

Target: recombinant eIF4E (Homo sapiens (Human), UniProt P06730)
Assay: Fluorescence polarization competition assay for eIF4E binding potency
Summary of the method: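 FP readout; IC50 fit from 8-point, 3-fold series. 75 nM eIF4E + 20 nM ATTO-550-labelled m7GDP probe, Tris pH 7.5/NaCl/DTT/Tween buffer, 1% DMSO final. 30 min RT equilibration, light-protected.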

[1] = fluorescence polarization competition, 75 nM recombinant eIF4E, 20 nM EDA-m7GDP-ATTO-550, IC50 class, read-out: elF4E FP
[2] = inhibition of eIF4E/EDA-m7GDP-ATTO-550 binding by 50%, Table 4B calculated values, read-out: IC50

Sequence of recombinant eIF4E (P06730 whole entry): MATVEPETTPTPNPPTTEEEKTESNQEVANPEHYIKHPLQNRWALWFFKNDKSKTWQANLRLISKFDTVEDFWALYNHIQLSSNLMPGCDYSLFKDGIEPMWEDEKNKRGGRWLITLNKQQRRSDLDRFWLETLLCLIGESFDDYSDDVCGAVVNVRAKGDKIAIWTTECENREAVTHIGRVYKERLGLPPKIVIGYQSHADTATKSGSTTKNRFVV

IC50 [1] [nM]	IC50 [2] [nM]	Compound
< 50	7.76	Cc1cc(-c2cc(Cl)ccc2OCCn2c(C)nc3cc4c(c(C#N)c3c2=O)CC(N(C)C)C4)c2scc(C(=O)O)c2n1 (centres unmarked) [compound 611]
< 50	43.8	Cc1cc(-c2cc(Cl)ccc2OCCn2c(C)nc3cc4c(c(C#N)c3c2=O)C(N(C)C)CC4)c2scc(C(=O)O)c2n1 (centres unmarked) [compound 612]
< 50	7.89	Cc1cc(-c2cc(Cl)ccc2OCCn2c(C)nc3cc4c(c(C#N)c3c2=O)CCC4N(C)C)c2scc(C(=O)O)c2n1 (centres unmarked) [compound 613]
< 50	16.3	Cc1nc2cc(C(F)(F)F)c(CN3CCN(C)CC3)c(C#N)c2c(=O)n1CC#Cc1ccc(Cl)cc1-c1ccnc2c(C(=O)O)csc12 [compound 615]
< 50	2.45	Cc1cc(-c2cc(Cl)ccc2C#CCn2c(C)nc3cc(C(F)(F)F)c(CN4CCN(C)CC4)c(C#N)c3c2=O)c2scc(C(=O)O)c2n1 [compound 616]
< 50	39.7	Cc1nc2cc(C(F)(F)F)c(CN3CCOCC3)c(C#N)c2c(=O)n1CC#Cc1ccc(Cl)cc1-c1ccnc2c(C(=O)O)csc12 [compound 617]
< 50	2.98	Cc1cc(-c2cc(Cl)ccc2OCCn2c(C)nc3cc(CN(C)C(C)(C)C)c(OC(F)F)c(C#N)c3c2=O)c2scc(C(=O)O)c2n1 [compound 618]
< 50	6.34	Cc1cc(-c2cc(Cl)ccc2OCCn2c(C)nc3cc(CNC(C)(C)C)c(OC(F)F)c(C#N)c3c2=O)c2scc(C(=O)O)c2n1 [compound 619]
< 50	36.9	Cc1c(CN(C)C)c(C(F)(F)F)cc2nc(C)n(CCOc3ccc(Cl)cc3-c3ccnc4c(C(=O)O)csc34)c(=O)c12 [compound 620]
50 to 1000	60	Cc1nc2cc(C(F)(F)F)c(CN(C)C)c(F)c2c(=O)n1CCOc1ccc(Cl)cc1-c1ccnc2c(C(=O)O)csc12 [compound 621]
< 50	43.8	Cc1nc2cc(C(F)F)c(CN(C)C)c(C#N)c2c(=O)n1CC#Cc1ccc(Cl)cc1-c1ccnc2c(C(=O)O)csc12 [compound 622]
< 50	4.77	Cc1nc2cc(CN(C)C)c(C(F)(F)F)c(C#N)c2c(=O)n1CC#Cc1ccc(Cl)cc1-c1ccnc2c(C(=O)O)csc12 [compound 623]
< 50	4.02	Cc1nc2cncc(C#N)c2c(=O)n1CC#Cc1ccc(Cl)cc1-c1ccnc2c(C(=O)O)csc12 [compound 624]
50 to 1000	78	Cc1nc2cnc(C#N)cc2c(=O)n1CC#Cc1ccc(Cl)cc1-c1ccnc2c(C(=O)O)csc12 [compound 625]
< 50	10.4	Cc1nc2cc(CN(C)C)c(OC(F)F)c(C#N)c2c(=O)n1CC#Cc1ccc(Cl)cc1-c1ccnc2c(C(=O)O)csc12 [compound 626]
< 50	6.72	Cc1cc(-c2cc(Cl)ccc2OCCn2c(C)nc3cc(C(F)F)c(C)c(C#N)c3c2=O)c2scc(C(=O)O)c2n1 [compound 627]
< 50	28.5	Cc1cc(-c2cc(Cl)ccc2OCCn2c(C)nc3cc(C)c(C)c(C#N)c3c2=O)c2scc(C(=O)O)c2n1 [compound 628]
< 50	6.39	Cc1cc(-c2cc(Cl)ccc2OCCn2c(C)nc3cc(C(F)(F)F)c(-c4ccncc4)c(C#N)c3c2=O)c2scc(C(=O)O)c2n1 [compound 629]
50 to 1000	50.2	Cc1cc(-c2cc(Cl)ccc2OCCn2c(C)nc3cc(C(F)(F)F)c(-c4cccnc4)c(C#N)c3c2=O)c2scc(C(=O)O)c2n1 [compound 630]
< 50	3.41	Cc1cc(-c2cc(Cl)ccc2OCCn2c(C)nc3cc(C(F)(F)F)c(-c4ccccn4)c(C#N)c3c2=O)c2scc(C(=O)O)c2n1 [compound 631]
< 50	12	Cc1cc(-c2cc(Cl)ccc2OCCn2c(C)nc3cc(C(F)(F)F)c(-n4ccnc4)c(C#N)c3c2=O)c2scc(C(=O)O)c2n1 [compound 632]
< 50	12.9	Cc1cc(-c2cc(Cl)ccc2OCCn2c(C)nc3cc(C(F)(F)F)c(-n4cccn4)c(C#N)c3c2=O)c2scc(C(=O)O)c2n1 [compound 633]
< 50	10.6	Cc1cc(-c2cc(Cl)ccc2OCCn2c(C)nc3cc(CN(C)C)c(C(F)(F)F)c(C#N)c3c2=O)c2scc(C(=O)O)c2n1 [compound 635]
< 50	33.2	Cc1nc2cc(C(F)(F)F)cc(C#N)c2c(=O)n1CCOc1ccc(Cl)cc1-c1cc(CN(C)C)nc2c(C(=O)O)csc12 [compound 636]
< 50	16.6	CCc1cc(-c2cc(Cl)ccc2OCCn2c(C)nc3cc(C(F)(F)F)c(CN4CCN(C)CC4)c(C#N)c3c2=O)c2scc(C(=O)O)c2n1 [compound 637]
< 50	4.46	COc1cc(-c2cc(Cl)ccc2OCCn2c(C)nc3cc(C(F)(F)F)c(CN4CCN(C)CC4)c(C#N)c3c2=O)c2scc(C(=O)O)c2n1 [compound 638]

IC50 [1] [nM]	IC50 [2] [nM]	Compound
< 50		CCc1cc(-c2cc(Cl)ccc2OCCn2c(C)nc3cc(CN(C)C)c(OC(F)F)c(C#N)c3c2=O)c2scc(C(=O)O)c2n1 [compound 639]
< 50	24	Cc1nc2cc(C(F)(F)F)c(N3CCN(CC(F)(F)F)CC3)c(C#N)c2c(=O)n1CCOc1ccc(Cl)cc1-c1ccnc2c(C(=O)O)csc12 [compound 640]
< 50	33.3	Cc1sc2c(-c3cc(Cl)ccc3OCCn3cnc4cc(C(F)(F)F)c(CN(C)C)c(C#N)c4c3=O)ccnc2c1C(=O)O [compound 641]
< 50	3.63	Cc1cc(-c2cc(Cl)ccc2OCCn2c(C)nc3cc(C(F)(F)F)c(CN4C[C@@H](C)O[C@@H](C)C4)c(C#N)c3c2=O)c2scc(C(=O)O)c2n1 [compound 642]
< 50	0.832	Cc1sc2c(-c3cc(Cl)ccc3C#CCn3c(C)nc4cc(C(F)(F)F)c(CN5CCN(C)CC5)c(C#N)c4c3=O)ccnc2c1C(=O)O [compound 643]
< 50	4.97	Cc1nc2cc(C(F)(F)F)c(CN3CCN(C)CC3)c(C#N)c2c(=O)n1CCOc1ccc(Cl)cc1-c1cc(CCF)nc2c(C(=O)O)csc12 [compound 644]
< 50	31.3	Cc1nc2cc(C(F)(F)F)c(CN3CCN(C)CC3)c(C#N)c2c(=O)n1CCOc1ccc(Cl)cc1-c1cc(CF)nc2c(C(=O)O)csc12 [compound 645]
< 50	41.4	Cc1cc(-c2cc(Cl)ccc2OCCn2c(C)nc3cc(C(F)F)c(CN4CCN(C)CC4)c(C#N)c3c2=O)c2scc(C(=O)O)c2n1 [compound 646]
< 50	19.8	Cc1cc(-c2cc(Cl)ccc2OCCn2c(C)nc3ccc(CN4CCN(C)CC4)c(C#N)c3c2=O)c2scc(C(=O)O)c2n1 [compound 647]
< 50	15	Cc1cc(-c2cc(Cl)ccc2OCCn2c(C)nc3cc(C(F)(F)F)c(CN4CCNCC4)c(C#N)c3c2=O)c2scc(C(=O)O)c2n1 [compound 649]
< 50	28.3	Cc1cc(-c2cc(Cl)ccc2OCCn2c(C)nc3cc(CN(C)C)c(C)c(C#N)c3c2=O)c2scc(C(=O)O)c2n1 [compound 650]
< 50	21.8	Cc1nc2cc(CN(C)Cc3cn(C)nn3)c(OC(F)F)c(C#N)c2c(=O)n1CCOc1ccc(Cl)cc1-c1ccnc2c(C(=O)O)csc12 [compound 651]
< 50	6.68	Cc1cc(-c2cc(Cl)ccc2OCCn2c(C)nc3cc(C(F)(F)F)c(C4CN(C)C4)c(C#N)c3c2=O)c2scc(C(=O)O)c2n1 [compound 652]
< 50	22.7	Cc1cc(-c2cc(Cl)ccc2OCCn2c(C)nc3cc(Cl)c(-c4cccnc4)c(C#N)c3c2=O)c2scc(C(=O)O)c2n1 [compound 653]
< 50	3.12	Cc1cc(-c2cc(Cl)ccc2OCCn2c(C)nc3cc(-c4cccnc4)cc(C#N)c3c2=O)c2scc(C(=O)O)c2n1 [compound 654]
< 50	13.5	Cc1nc2cc(C(F)(F)F)c(N3CCN(CCF)CC3)c(C#N)c2c(=O)n1CCOc1ccc(Cl)cc1-c1ccnc2c(C(=O)O)csc12 [compound 655]
< 50	33.4	Cc1nc(N2CCN(C)C3CC32)c(C#N)c2c(=O)n(CC#Cc3ccc(Cl)cc3-c3ccnc4c(C(=O)O)csc34)c(C)nc12 (centres unmarked) [compound 656]
< 50	45.7	N#Cc1cccc2c1c(=O)n(CCOc1ccc(Cl)cc1-c1ccnc3c(C(=O)O)csc13)c1ccccc21 [compound 657]
> 1000	1290	O=C(O)c1csc2c(-c3cc(Cl)ccc3OCCn3c(=O)c4ccccc4c4cnncc43)ccnc12 [compound 658]
< 50	26.4	Cc1nc2c(ccc3cnncc32)c(=O)n1CCOc1ccc(Cl)cc1-c1ccnc2c(C(=O)O)csc12 [compound 659]
50 to 1000	258	Cc1nc2cc(C(F)(F)F)cc(C#N)c2c(=O)n1CCOc1ccc(Cl)cc1-c1cncc(-c2nn[nH]n2)c1 [compound 660]
< 50	12.1	Cc1nc2cc(C(F)(F)F)cc(C#N)c2c(=O)n1CCOc1ccc(Cl)cc1-c1ccnc2c(C(=O)O)cnn12 [compound 661]
50 to 1000	144	Cc1nc2cc(C(F)(F)F)cc(C#N)c2c(=O)n1CCOc1ccc(Cl)cc1-c1ccnc(-c2nnn[nH]2)c1 [compound 662]
50 to 1000	332	Cc1nc2cc(C(F)(F)F)cc(C#N)c2c(=O)n1CCOc1ccc(Cl)cc1-c1ccnc2c(O)csc12 [compound 663]
50 to 1000	153	COC(=O)c1sc2cc(-c3cc(Cl)ccc3OCCn3c(C)nc4cc(C(F)(F)F)cc(C#N)c4c3=O)cnc2c1O [compound 664]
